Experimental findings from patent US8729271B2, “Glycine transporter inhibiting substances” (Taisho Pharmaceutical Co., Ltd, priority 2010, dated 2014) are described below.

Series [1] addresses T1, P-glycoprotein (P-gp), Human MDR1 (Homo sapiens, UniProt P08183).
T1 construct: expressed in transfected cells; host or cells: LLC-GAS-COL 300 cells (derived from pig kidney LLC-PK1)
Nature of the series: Test for recognizability of P-gp substrate (LLC-GAS-COL 300 cells, Transwell). It is filed as in vitro ADME. The note with it: 10 μM; LLC-GAS-COL 300 cells (Human MDR1 in LLC-PK1); criteria of Nature Reviews Drug Discovery (2010) 9, 215-236. The text has this:
In order that drugs acting on the central nervous system will develop their efficacy, their passage from the blood to the brain is generally important. While various efflux transporters are present at the blood-brain barrier to control this passage of drugs, P-glylcoprotein (P-gp) is a typical example and inhibits the passage to the brain of any drugs that serve as the substrate for P-gp. Therefore, in the development of pharmaceuticals, nonrecognizability of a candidate drug as the substrate for P-gp is the key to its passage to the brain.
A test for recognizability of P-gp substrate was performed in accordance with a modified version of the methods described in J Pharmacol. Exp. Ther. (1992) Vol. 263, No. 2, 840-845 and J Biol. Chem. (1992) Vol. 267, No. 34, 24248-24252. To be more specific, LLC-GAS-COL 300 cells (Human MDR1 expressing system derived from pig kidney derived, cultured renal epithelial cell line LLC-PK1) were cultured for 4 days on a Transwell and replaced by a Hank's balanced salt solution (HBSS) in each well just before the test. A solution of an assay compound (a DMSO solution of the compound as diluted with HBSS and adjusted to a final concentration of 10 μM) was added to the donor side of the LLC-GAS-COL 300 cells and a prescribed amount of HBSS was collected from the acceptor side at given time intervals and the concentration of the assay compound in the collected sample was measured by LC-MS/MS.
From the cumulative amount of the compound's permeation into the acceptor, the membrane permeability coefficient (×10^−6 cm/sec) was calculated for each of apical→basal mode and basal→apical mode and the recognizability of P-gp substrate was assessed in terms of the ratio between the two modes (efflux ratio).

The target of series [2] is T2, human type 1 glycine transporter (GlyT1) (Homo sapiens, UniProt P48067).
T2 construct: Used in the experiment were T98G cells (glioma cells) developing a human type 1 glycine transporter of (GlyT1); endogenous in cells; host or cells: T98G human glioma cells
T2 sequence (P48067 1-706): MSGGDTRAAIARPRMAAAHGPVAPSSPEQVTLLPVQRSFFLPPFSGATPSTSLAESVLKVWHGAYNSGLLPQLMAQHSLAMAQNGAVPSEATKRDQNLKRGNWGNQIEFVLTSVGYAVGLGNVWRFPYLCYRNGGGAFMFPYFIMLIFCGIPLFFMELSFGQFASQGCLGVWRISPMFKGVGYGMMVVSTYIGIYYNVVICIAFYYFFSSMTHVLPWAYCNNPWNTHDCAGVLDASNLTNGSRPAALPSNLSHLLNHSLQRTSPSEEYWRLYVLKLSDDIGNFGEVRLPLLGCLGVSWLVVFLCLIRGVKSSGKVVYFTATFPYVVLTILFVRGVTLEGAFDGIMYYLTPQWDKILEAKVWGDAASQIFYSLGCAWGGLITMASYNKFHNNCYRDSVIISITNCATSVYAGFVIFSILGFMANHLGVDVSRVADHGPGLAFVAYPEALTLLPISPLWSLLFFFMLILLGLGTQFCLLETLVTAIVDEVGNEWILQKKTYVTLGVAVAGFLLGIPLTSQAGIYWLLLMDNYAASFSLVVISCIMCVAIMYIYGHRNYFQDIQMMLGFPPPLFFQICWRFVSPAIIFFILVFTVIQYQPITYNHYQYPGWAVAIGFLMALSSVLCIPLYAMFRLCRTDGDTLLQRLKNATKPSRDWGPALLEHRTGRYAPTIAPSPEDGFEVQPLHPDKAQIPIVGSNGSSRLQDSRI
Nature of the series: Glycine uptake inhibition experiment ([3H]glycine uptake in T98G cells). It is filed as cell-based. The note with it: T98G glioma cells; [3H]glycine 250 nM; 10-min pretreatment; 15 min at room temperature; read-out: glycine uptake inhibiting activity (IC50). How it is done:
A glycine uptake inhibition experiment was conducted in accordance with the method described in Neuron, 8, 927-935, 1992. Used in the experiment were T98G cells (glioma cells) developing a human type 1 glycine transporter of (GlyT1). The T98G cells were seeded in a 96-well plate at a density of 2.0×10^4 cells per well and cultured overnight in a CO2 incubator. The test substance was first dissolved in a 100% DMSO solution and then dissolved in a 10 mM HEPES buffer solution (pH 7.4) supplemented with 150 mM sodium chloride, 1 mM calcium chloride, 5 mM potassium chloride, 1 mM magnesium chloride, 10 mM glucose, and 0.2% bovine serum albumin. After removing the cell culture medium, the test substance was subjected to a 10-min pretreatment. Thereafter, the test substance and [^3H] glycine (final concentration: 250 nM) were added to the cells and reaction was performed at room temperature for 15 minutes. After the end of the reaction, the extracellular fluid was aspirated with a manifold to remove the excess marker glycine present outside of the cells; thereafter, the cells were lysed with an aqueous solution of 0.5 M sodium hydroxide. The glycine content in the cells was determined by measuring the radioactivity in the cell lysate with a liquid scintillation counter. With the amount of glycine uptake in the presence of 10 μM ALX5407 being referred to as the nonspecific uptake, the amount of specific uptake was calculated by subtracting the amount of nonspecific uptake from the total amount of uptake in the absence of 10 μM ALX5407. In addition, glycine uptake inhibiting activity (IC50) was calculated from an inhibition curve for the concentration of the test substance ranging from 10^−9 to 10^−5 M.
It should be noted that ALX5407 is a HCl salt of N-[(3R)-3-([1,1′-biphenyl]-4-yloxy)-3-(4-fluorophenyl)propyl]-N-methylglycine.
Incidentally, Compound 56 which is recited as 2HCl salt in the above Table 1-6 was subjected to measurement as its free form in the Glycine Uptake Inhibition Experiment.

Molecules are shown by their SMILES.

T1 sequence (P08183 whole entry): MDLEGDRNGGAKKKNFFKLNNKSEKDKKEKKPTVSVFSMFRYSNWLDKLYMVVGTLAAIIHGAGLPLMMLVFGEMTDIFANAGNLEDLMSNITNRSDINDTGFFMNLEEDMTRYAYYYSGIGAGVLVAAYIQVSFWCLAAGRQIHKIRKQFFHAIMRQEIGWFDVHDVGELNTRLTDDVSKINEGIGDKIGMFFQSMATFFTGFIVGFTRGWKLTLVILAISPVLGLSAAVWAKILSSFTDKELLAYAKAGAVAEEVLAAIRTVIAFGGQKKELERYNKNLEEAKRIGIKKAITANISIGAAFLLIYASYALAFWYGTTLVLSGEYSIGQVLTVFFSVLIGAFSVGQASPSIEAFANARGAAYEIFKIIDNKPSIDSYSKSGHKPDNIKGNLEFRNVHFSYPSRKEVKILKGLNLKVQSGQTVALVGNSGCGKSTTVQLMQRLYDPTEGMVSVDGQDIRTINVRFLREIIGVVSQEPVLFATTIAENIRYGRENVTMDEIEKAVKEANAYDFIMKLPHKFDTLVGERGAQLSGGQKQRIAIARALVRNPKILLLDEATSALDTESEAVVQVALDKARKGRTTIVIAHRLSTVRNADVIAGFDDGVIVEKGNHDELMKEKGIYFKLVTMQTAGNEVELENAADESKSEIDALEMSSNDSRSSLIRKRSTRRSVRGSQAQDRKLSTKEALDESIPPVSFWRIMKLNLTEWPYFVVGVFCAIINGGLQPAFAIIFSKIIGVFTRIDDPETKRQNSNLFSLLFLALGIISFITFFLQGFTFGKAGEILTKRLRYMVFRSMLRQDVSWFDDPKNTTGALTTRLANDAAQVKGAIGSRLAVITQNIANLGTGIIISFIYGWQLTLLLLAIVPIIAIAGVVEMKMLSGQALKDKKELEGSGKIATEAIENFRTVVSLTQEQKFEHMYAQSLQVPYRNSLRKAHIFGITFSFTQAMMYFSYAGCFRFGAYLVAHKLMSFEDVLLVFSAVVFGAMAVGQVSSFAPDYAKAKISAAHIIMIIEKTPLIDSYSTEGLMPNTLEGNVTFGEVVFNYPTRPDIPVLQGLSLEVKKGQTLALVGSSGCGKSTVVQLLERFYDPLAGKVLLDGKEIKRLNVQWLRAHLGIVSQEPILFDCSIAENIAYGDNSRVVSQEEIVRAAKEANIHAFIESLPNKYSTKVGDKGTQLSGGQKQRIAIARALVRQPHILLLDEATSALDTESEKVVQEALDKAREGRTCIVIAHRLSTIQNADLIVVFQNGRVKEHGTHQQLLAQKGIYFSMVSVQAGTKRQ

For the compound `CC(C)N(Cc1ccnc(-c2ccc(OC(F)(F)F)cc2)c1)C(=O)c1cn(C)cn1` [Compound 30], in series [1], the “recognizability as P-gp substrate (from efflux ratio basal→apical / apical→basal)” value was “not recognizable as the substrate for P-gp”. Further, the IC50 – broadly, the concentration that inhibits the measured activity by half – in series [2] worked out at 7.3 nM.
